# Measured values taken from patent US20230219904A1 (SYNGENTA CROP PROTECTION AG, priority 2020, published 2023).
# Legend:
# Type in all cases: in vivo
# Conditions in all cases: evaluated after 13 days
# [1] = system: Ipomoea hederacea (IPOHE); assay: Pre-emergence herbicidal glasshouse test (Table B1)
# In short: (§1)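 Application rate was 500 g/h unless otherwise indicated, as a spray prepared from acetone/water (50:50) containing 0.5% Tween 20. Treatment followed one day (pre-emergence) or 8 days (post-emergence) of glasshouse growth, and percentage plant damage was assessed 13 days later on a 1–5 scale.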
# [2] = system: Abutilon theophrasti (ABUTH); assay: as above
# In short: as §1
# Setaria faberi (SETFA) [3] = assay: as above
# In short: as §1
# [4] = system: Echinochloa crus-galh (ECHCG); assay: as above
# In short: as §1
# [5] = system: Amaranthus retoflexus (AMARE); assay: as above
# In short: as §1
# [6] = system: Ipomoea hederacea (IPOHE); assay: Post-emergence herbicidal glasshouse test (Table B1)
# In short: as §1
# [7] = system: Abutilon theophrasti (ABUTH); assay: as above
# In short: as §1
# Setaria faberi (SETFA) [8] = assay: as above
# In short: as §1
# [9] = system: Echinochloa crus-galh (ECHCG); assay: as above
# In short: as §1
# [10] = system: Amaranthus retoflexus (AMARE); assay: as above
# In short: as §1
SMILES,"PRE Application IPOHE, percentage damage on five-point scale ([1]; applied)","PRE Application ABUTH, percentage damage on five-point scale ([2]; applied at 500 g/h)","PRE Application SETFA, percentage damage on five-point scale (Setaria faberi (SETFA) [3]; applied at 500 g/h)","PRE Application ECHCG, percentage damage on five-point scale ([4]; applied at 500 g/h)","PRE Application AMARE, percentage damage on five-point scale ([5]; applied at 500 g/h)","POST Application IPOHE, percentage damage on five-point scale ([6]; applied at 500 g/h)","POST Application ABUTH, percentage damage on five-point scale ([7]; applied at 500 g/h)","POST Application SETFA, percentage damage on five-point scale (Setaria faberi (SETFA) [8]; applied at 500 g/h)","POST Application ECHCG, percentage damage on five-point scale ([9]; applied at 500 g/h)","POST Application AMARE, percentage damage on five-point scale ([10]; applied at 500 g/h)","PRE Application IPOHE, percentage damage on five-point scale ([1]; applied at 125 g/ha)","PRE Application ABUTH, percentage damage on five-point scale ([2]; applied at 125 g/ha)","PRE Application SETFA, percentage damage on five-point scale (Setaria faberi (SETFA) [3]; applied at 125 g/ha)","PRE Application ECHCG, percentage damage on five-point scale ([4]; applied at 125 g/ha)","PRE Application AMARE, percentage damage on five-point scale ([5]; applied at 125 g/ha)","POST Application IPOHE, percentage damage on five-point scale ([6]; applied at 125 g/ha)","POST Application ABUTH, percentage damage on five-point scale ([7]; applied at 125 g/ha)","POST Application SETFA, percentage damage on five-point scale (Setaria faberi (SETFA) [8]; applied at 125 g/ha)","POST Application ECHCG, percentage damage on five-point scale ([9]; applied at 125 g/ha)","POST Application AMARE, percentage damage on five-point scale ([10]; applied at 125 g/ha)"
COc1ccc(C(=O)Nc2nnnn2C)c(Cl)c1NC(=O)C1CC1 [Compound 1.029],4 (4=60-79%),5 (5=80-100%),5 (5=80-100%),5 (5=80-100%),5 (5=80-100%),5 (5=80-100%),5 (5=80-100%),5 (5=80-100%),5 (5=80-100%),5 (5=80-100%),,,,,,,,,,
CC(F)C(=O)Nc1c(OC(F)(F)F)ccc(C(=O)Nc2nnnn2C)c1Cl (stereo not shown) [Compound 1.009],4 (4=60-79%),5 (5=80-100%),5 (5=80-100%),1 (1=0-19%),5 (5=80-100%),5 (5=80-100%),5 (5=80-100%),5 (5=80-100%),5 (5=80-100%),5 (5=80-100%),,,,,,,,,,
Cn1nnnc1NC(=O)c1ccc(OC(F)(F)F)c(NC(=O)C2CCC2)c1Cl [Compound 1.112],1 (1=0-19%),4 (4=60-79%),1 (1=0-19%),5 (5=80-100%),5 (5=80-100%),5 (5=80-100%),5 (5=80-100%),5 (5=80-100%),5 (5=80-100%),5 (5=80-100%),,,,,,,,,,
CCC(=O)Nc1c(OC(F)(F)F)ccc(C(=O)Nc2nnnn2C)c1C(F)(F)F [Compound 1.082],,,,,,,,,,,3 (3=40-59%),5 (5=80-100%),4 (4=60-79%),5 (5=80-100%),5 (5=80-100%),4 (4=60-79%),4 (4=60-79%),4 (4=60-79%),3 (3=40-59%),4 (4=60-79%)
Cn1nnnc1NC(=O)c1ccc(OC(F)F)c(N2CCCCC2=O)c1Cl [Compound 1.023],,,,,,,,,,,2 (2=20-39%),5 (5=80-100%),5 (5=80-100%),5 (5=80-100%),5 (5=80-100%),5 (5=80-100%),5 (5=80-100%),5 (5=80-100%),5 (5=80-100%),5 (5=80-100%)
Cn1nnnc1NC(=O)c1ccc(OC(F)F)c(NC(=O)c2ccc(C(F)(F)F)cn2)c1Cl [Compound 1.084],,,,,,,,,,,1 (1=0-19%),4 (4=60-79%),1 (1=0-19%),1 (1=0-19%),5 (5=80-100%),3 (3=40-59%),5 (5=80-100%),3 (3=40-59%),3 (3=40-59%),4 (4=60-79%)
Cn1nnnc1NC(=O)c1ccc(OC(F)F)c(NC(=O)C2CC2)c1Cl [Compound 1.019],,,,,,,,,,,5 (5=80-100%),5 (5=80-100%),5 (5=80-100%),5 (5=80-100%),5 (5=80-100%),5 (5=80-100%),5 (5=80-100%),5 (5=80-100%),5 (5=80-100%),5 (5=80-100%)
CCn1nnnc1NC(=O)c1ccc(OC(F)(F)F)c(NC(=O)c2ccccn2)c1Cl [Compound 1.128],1 (1=0-19%),4 (4=60-79%),1 (1=0-19%),3 (3=40-59%),5 (5=80-100%),5 (5=80-100%),5 (5=80-100%),5 (5=80-100%),5 (5=80-100%),5 (5=80-100%),,,,,,,,,,
CN(C)c1c(OC(F)(F)F)ccc(C(=O)Nc2nnnn2C)c1Cl [Compound 1.001],5 (5=80-100%),5 (5=80-100%),5 (5=80-100%),5 (5=80-100%),5 (5=80-100%),5 (5=80-100%),5 (5=80-100%),5 (5=80-100%),5 (5=80-100%),5 (5=80-100%),,,,,,,,,,
CCn1nnnc1NC(=O)c1ccc(OC(F)(F)F)c(NC(=O)C2CC2)c1Cl [Compound 1.117],4 (4=60-79%),5 (5=80-100%),4 (4=60-79%),5 (5=80-100%),5 (5=80-100%),5 (5=80-100%),5 (5=80-100%),5 (5=80-100%),5 (5=80-100%),5 (5=80-100%),,,,,,,,,,
COCCC(=O)Nc1c(OC(F)(F)F)ccc(C(=O)Nc2nnnn2C)c1Cl [Compound 1.120],1 (1=0-19%),4 (4=60-79%),1 (1=0-19%),5 (5=80-100%),5 (5=80-100%),5 (5=80-100%),5 (5=80-100%),5 (5=80-100%),5 (5=80-100%),5 (5=80-100%),,,,,,,,,,
CCn1nnnc1NC(=O)c1ccc(OC(F)(F)F)c(NC(=O)COC)c1Cl [Compound 1.116],1 (1=0-19%),5 (5=80-100%),1 (1=0-19%),3 (3=40-59%),5 (5=80-100%),5 (5=80-100%),5 (5=80-100%),5 (5=80-100%),5 (5=80-100%),5 (5=80-100%),,,,,,,,,,
CC(C)C(=O)Nc1c(OC(F)F)ccc(C(=O)Nc2nnnn2C)c1Cl [Compound 1.020],,,,,,,,,,,5 (5=80-100%),5 (5=80-100%),5 (5=80-100%),5 (5=80-100%),5 (5=80-100%),5 (5=80-100%),5 (5=80-100%),5 (5=80-100%),5 (5=80-100%),5 (5=80-100%)
